In publication PMC12320299 (Chemical Science, 2025):
Where two headings read alike, the source gives them in different places.

System: SW480 cancer cells
Assay: Proteome profiling of compound-treated SW480 cancer cells (24 h, approx. IC50, CYT and NE fractions)
Assay type: cell-based, human
Conditions: for N° significantly regulated proteins, Total: CYT and NE; for N° proteins down-regulated, CYT / N° proteins upregulated, CYT: cytoplasmic fraction
Procedure: To gain insight into potential modes of action and derive structure–activity relationships on a molecular level, proteomic profiling experiments were carried out based on label-free quantification (LFQ) by nano-liquid chromatography tandem mass spectrometry (nLC-MS/MS). […] Six replicates were used per condition. The perturbations were evaluated at subcellular resolution by fractionating cells into cytoplasmic (CYT) and nuclear (NE) protein fractions. Those have been separately proteolytically digested and analysed (Fig. 3A). The perturbations with the 3-Et-NQ and 3-Morph-NQ complexes were performed against their respective solvent-treated controls (CON), yielding a total of 72 samples. […] Statistical significance of individual protein regulations was calculated by multiple testing-corrected P-values based on 5% false discovery rate (FDR = 0.05 and S0 = 0.1).
The position of each group represents the summed fold-changes of the individual proteins in the group according to the subcellular space, i.e., CYT and NE fractions, while the size represents the number of proteins in each group. […]
Proteome profiling of compound-treated SW480 cancer cells […]
cells per well and left to adhere in complete cell culture medium. After 24 h, the medium was exchanged with fresh complete medium (DMSO mock control) or fresh medium containing […]
solution in DMSO, respectively) and incubated for another 24 h. Each condition was carried out in hexuplicates. The cells were processed according to a nucleocytoplasmic fractionation protocol as previously described.3 All steps were performed on ice. The medium was removed, and the cells were washed twice with 1×PBS (phosphate buffered saline, 3 mL). Then, PBS was thoroughly removed. Isotonic lysis buffer (10 mM HEPES, 10 mM NaCl, 3.5 mM MgCl2, 1 mM EGTA, 0.25 M Sucrose, 0.5% Triton X-100) containing protease inhibitors (1% PMSF, Sigma, and 1% protease and phosphatase inhibitor cocktail, Roche) was added to the flasks, the cells were scraped off and transferred into labelled 15 mL Falcon tubes. The cellular membrane was ruptured using shear stress by pressing the cell suspension through a syringe 9–12 times. Membrane rupture with intact nuclei was monitored under a microscope. After centrifugation (960 g, 5 min), the supernatant containing the cytoplasmic (CYT) proteins was transferred into new tubes containing ice-cold ethanol (1 : 5, HPLC grade) and precipitated […]
overnight at –20 °C. The pellet containing the nuclei was incubated with a hypertonic solution (10 mM Tris-HCl, 1 mM EDTA and 0.5 M NaCl) and subsequently diluted 1:10 with NP-40 buffer (10 mm Tris-HCl, 1 mm EDTA and 0.5% Triton X-100) containing protease inhibitors (1% PMSF, Sigma, and 1% protease and phosphatase inhibitor cocktail, Roche). After centrifugation (960 g, 5 min), the soluble nuclear (NE) proteins were also transferred into new tubes containing ice-cold ethanol (1 : 5, HPLC grade) and precipitated overnight at –20 °C.
The precipitated proteins were finally pelleted by centrifugation (5000 g, 30 min, 4 °C), the solution was decanted and the pellet dried under vacuum.

[1] = nuclear fraction, FDR = 0.05, S0 = 0.1

CCC1=C2[O][Os][O]C2(n2cccn2)c2ccccc2C1=O.Cc1ccc(C(C)C)cc1 (stereo not shown) [Compound 2a]
N° significantly regulated proteins, Total: 968
GO BP Cellular response to heat, summed fold-changes (CYT fraction): 12.51
GO BP Cellular response to oxidative stress, summed fold-changes (CYT fraction): 2.82
GO BP DNA duplex unwinding, summed fold-changes (CYT fraction): -6.24
GO BP DNA replication, summed fold-changes (CYT fraction): -1.08
GO BP Double-strand break repair, summed fold-changes (CYT fraction): -1.23
GO BP Macroautophagy, summed fold-changes (CYT fraction): 10.51
GO BP Negative regulation of apoptotic process, summed fold-changes (CYT fraction): 3.78
GO BP Negative regulation of translation, summed fold-changes (CYT fraction): -16.92
GO BP Proteasome-mediated ubiquitin-dependent protein catabolic process, summed fold-changes (CYT fraction): 2.56
GO BP Protein K48-linked ubiquitination, summed fold-changes (CYT fraction): -5.49
GO BP Protein folding, summed fold-changes (CYT fraction): 12.25
GO BP Protein transport, summed fold-changes (CYT fraction): -1.68
GO BP Regulation of mRNA stability, summed fold-changes (CYT fraction): -7.54
GO BP Response to oxidative stress, summed fold-changes (CYT fraction): 3.27
GO BP Ribosomal small subunit biogenesis, summed fold-changes (CYT fraction): -13.81
GO BP Stress granule assembly, summed fold-changes (CYT fraction): -9.95
GO BP Translation, summed fold-changes (CYT fraction): -61.19
GO BP mRNA processing, summed fold-changes (CYT fraction): -0.15
GO BP rRNA processing, summed fold-changes (CYT fraction): -20.40
GO CC Azurophil granule lumen, summed fold-changes (CYT fraction): 3.77
GO CC Cell surface, summed fold-changes (CYT fraction): 0.48
GO CC Centrosome, summed fold-changes (CYT fraction): -15.78
GO CC Chromosome, telomeric region, summed fold-changes (CYT fraction): -11.84
GO CC Cytoplasmic stress granule, summed fold-changes (CYT fraction): -16.41
GO CC Cytosol, summed fold-changes (CYT fraction): -84.80
GO CC Endoplasmic reticulum, summed fold-changes (CYT fraction): -28.57
GO CC Extracellular exosome, summed fold-changes (CYT fraction): -26.34
GO CC Ficolin-1-rich granule lumen, summed fold-changes (CYT fraction): 8.74
GO CC Focal adhesion, summed fold-changes (CYT fraction): -17.07
GO CC Intracellular membrane-bounded organelle, summed fold-changes (CYT fraction): -3.80
GO CC Membrane, summed fold-changes (CYT fraction): -160.70
GO CC Mitochondrion, summed fold-changes (CYT fraction): -60.30
GO CC Nucleoplasm, summed fold-changes (CYT fraction): -4.45
GO CC Nucleus, summed fold-changes (CYT fraction): -0.98
GO CC Perinuclear region of cytoplasm, summed fold-changes (CYT fraction): -5.25
GO CC Proteasome complex, summed fold-changes (CYT fraction): 3.84
GO CC Protein-containing complex, summed fold-changes (CYT fraction): -12.02
GO CC Ribonucleoprotein complex, summed fold-changes (CYT fraction): -24.78
GO CC Spliceosomal complex, summed fold-changes (CYT fraction): -1.04
KEGG pathway Apoptosis, summed fold-changes (CYT fraction): 5.03
KEGG pathway Cellular senescence, summed fold-changes (CYT fraction): -0.24
KEGG pathway Ferroptosis, summed fold-changes (CYT fraction): 5.49
KEGG pathway Proteasome, summed fold-changes (CYT fraction): 4.95
KEGG pathway Protein processing in endoplasmic reticulum, summed fold-changes (CYT fraction): 25.89
KEGG pathway RNA degradation, summed fold-changes (CYT fraction): -8.81
KEGG pathway Ribosome, summed fold-changes (CYT fraction): -52.73
GO BP Cellular response to heat, summed fold-changes (NE fraction): 8.73
GO BP Cellular response to oxidative stress, summed fold-changes (NE fraction): -0.12
GO BP DNA duplex unwinding, summed fold-changes (NE fraction): -0.60
GO BP DNA replication, summed fold-changes (NE fraction): -7.21
GO BP Double-strand break repair, summed fold-changes (NE fraction): -0.87
GO BP Macroautophagy, summed fold-changes (NE fraction): 4.83
GO BP Negative regulation of apoptotic process, summed fold-changes (NE fraction): 2.62
GO BP Negative regulation of translation, summed fold-changes (NE fraction): 1.88
GO BP Proteasome-mediated ubiquitin-dependent protein catabolic process, summed fold-changes (NE fraction): 45.28
GO BP Protein K48-linked ubiquitination, summed fold-changes (NE fraction): -1.15
GO BP Protein folding, summed fold-changes (NE fraction): 2.10
GO BP Protein transport, summed fold-changes (NE fraction): 1.57
GO BP Regulation of mRNA stability, summed fold-changes (NE fraction): -0.24
GO BP Response to oxidative stress, summed fold-changes (NE fraction): -0.72
GO BP Ribosomal small subunit biogenesis, summed fold-changes (NE fraction): -1.30
GO BP Stress granule assembly, summed fold-changes (NE fraction): 3.01
GO BP Translation, summed fold-changes (NE fraction): -4.88
GO BP mRNA processing, summed fold-changes (NE fraction): 1.71
GO BP rRNA processing, summed fold-changes (NE fraction): -2.04
GO CC Azurophil granule lumen, summed fold-changes (NE fraction): -1.14
GO CC Cell surface, summed fold-changes (NE fraction): 0.76
GO CC Centrosome, summed fold-changes (NE fraction): 0.70
GO CC Chromosome, telomeric region, summed fold-changes (NE fraction): -12.89
GO CC Cytoplasmic stress granule, summed fold-changes (NE fraction): 4.82
GO CC Cytosol, summed fold-changes (NE fraction): 8.58
GO CC Endoplasmic reticulum, summed fold-changes (NE fraction): 8.32
GO CC Extracellular exosome, summed fold-changes (NE fraction): 5.34
GO CC Ficolin-1-rich granule lumen, summed fold-changes (NE fraction): 23.99
GO CC Focal adhesion, summed fold-changes (NE fraction): 9.01
GO CC Intracellular membrane-bounded organelle, summed fold-changes (NE fraction): 8.65
GO CC Membrane, summed fold-changes (NE fraction): -2.15
GO CC Mitochondrion, summed fold-changes (NE fraction): -7.86
GO CC Nucleoplasm, summed fold-changes (NE fraction): 29.04
GO CC Nucleus, summed fold-changes (NE fraction): 29.16
GO CC Perinuclear region of cytoplasm, summed fold-changes (NE fraction): 8.90
GO CC Proteasome complex, summed fold-changes (NE fraction): 37.70
GO CC Protein-containing complex, summed fold-changes (NE fraction): -3.65
GO CC Ribonucleoprotein complex, summed fold-changes (NE fraction): 3.30
GO CC Spliceosomal complex, summed fold-changes (NE fraction): -3.40
KEGG pathway Apoptosis, summed fold-changes (NE fraction): -0.73
KEGG pathway Cellular senescence, summed fold-changes (NE fraction): -3.09
KEGG pathway Ferroptosis, summed fold-changes (NE fraction): 1.80
KEGG pathway Proteasome, summed fold-changes (NE fraction): 35.64
KEGG pathway Protein processing in endoplasmic reticulum, summed fold-changes (NE fraction): 19.56
KEGG pathway RNA degradation, summed fold-changes (NE fraction): -5.97
KEGG pathway Ribosome, summed fold-changes (NE fraction): -4.75
N° proteins down-regulated, CYT (FDR = 0.05, S0 = 0.1): 429
N° proteins upregulated, CYT (FDR = 0.05, S0 = 0.1): 202
N° proteins down-regulated, NE [1]: 170
N° proteins upregulated, NE [1]: 167

CCC1=C2[O][Ru][O]C2(n2cccn2)c2ccccc2C1=O.Cc1ccc(C(C)C)cc1 (stereo not shown) [Compound 1a, [(3-ethyl-4-oxo-(pyrazolyl)-dihydronaphthalene)(cymene)ruthenium(II)]]
N° proteins down-regulated, NE: 211
N° proteins upregulated, NE: 178
N° significantly regulated proteins, Total: 810
TP53 regulation in cytoplasmic fraction (CYT fraction): strongest down-regulated protein
N° proteins down-regulated, CYT (FDR = 0.05, S0 = 0.1): 298
N° proteins upregulated, CYT (FDR = 0.05, S0 = 0.1): 123
